# The NIST ThermoML archive (doi:10.1016/j.jct.2012.09.013)
# Numbers after ± are expanded uncertainties.
# How the values were obtained:
# [1] = 101.33 kPa, Liquid; for viscosity: Capillary tube (Ostwald / Ubbelohde) method; for speed of sound: Linear variable-path acoustic interferometer; for mass density: Pycnometric method
# [2] = mn = molality of the nth substance listed, in mol/kg; settings: 101 kPa, Liquid, m2 = 0; for viscosity: Capillary tube (Ostwald / Ubbelohde) method; for speed of sound: Linear variable-path acoustic interferometer; for mass density: Pycnometric method
Structure (SMILES),viscosity ([1]; 303 K) [mPa·s],speed of sound ([1]; 303 K) [m/s],mass density ([1]; 303 K) [kg/m3],viscosity ([1]; 308 K) [mPa·s],speed of sound ([1]; 308 K) [m/s],mass density ([1]; 308 K) [kg/m3],viscosity ([1]; 313 K) [mPa·s],speed of sound ([1]; 313 K) [m/s],mass density ([1]; 313 K) [kg/m3],viscosity ([2]; 303 K) [mPa·s],speed of sound ([2]; 303 K) [m/s],mass density ([2]; 303 K) [kg/m3],viscosity ([2]; 308 K) [mPa·s],speed of sound ([2]; 308 K) [m/s],mass density ([2]; 308 K) [kg/m3],viscosity ([2]; 313 K) [mPa·s],speed of sound ([2]; 313 K) [m/s],mass density ([2]; 313 K) [kg/m3]
CN(C)C=O [dimethylformamide],0.7588 ± 0.15,1442 ± 6,941.7 ± 0.7,0.7056 ± 0.14,1432 ± 5.9,937.2 ± 0.7,0.6353 ± 0.13,1402 ± 5.8,933.6 ± 0.6,,,,,,,,,
CN(C)C=O [dimethylformamide] + CC(=O)N1N=C(CSc2nc3ccccc3c(=O)n2-c2ccccc2C)OC1(C)c1ccc(C)cc1,,,,,,,,,,0.7588 ± 0.15,1442 ± 6,941.7 ± 0.7,0.7056 ± 0.14,1432 ± 5.9,937.2 ± 0.7,0.6353 ± 0.13,1402 ± 5.8,933.6 ± 0.6
CN(C)C=O [dimethylformamide] + COc1ccc(C2(C)OC(CSc3nc4ccccc4c(=O)n3-c3ccccc3C)=NN2C(C)=O)cc1,,,,,,,,,,0.7588 ± 0.15,1442 ± 6,941.7 ± 0.7,0.7056 ± 0.14,1432 ± 5.9,937.2 ± 0.7,0.6353 ± 0.13,1402 ± 5.8,933.6 ± 0.6
ClC(Cl)Cl [trichloromethane],0.6628 ± 0.13,960 ± 4,1475.3 ± 20,0.6279 ± 0.13,950.8 ± 4,1470.8 ± 20,0.5781 ± 0.12,932.4 ± 3.9,1465.8 ± 20,,,,,,,,,
ClC(Cl)Cl [trichloromethane] + CC(=O)N1N=C(CSc2nc3ccccc3c(=O)n2-c2ccccc2C)OC1(C)c1ccc(C)cc1,,,,,,,,,,0.6628 ± 0.13,960 ± 4,1475.3 ± 20,0.6279 ± 0.13,950.8 ± 4,1470.8 ± 20,0.5781 ± 0.12,932.4 ± 3.9,1465.8 ± 20
ClC(Cl)Cl [trichloromethane] + COc1ccc(C2(C)OC(CSc3nc4ccccc4c(=O)n3-c3ccccc3C)=NN2C(C)=O)cc1,,,,,,,,,,0.6628 ± 0.13,960 ± 4,1475.3 ± 20,0.6279 ± 0.13,950.8 ± 4,1470.8 ± 20,0.5781 ± 0.12,932.4 ± 3.9,1465.8 ± 20
